Legend:
LCC2 cells = test: cell proliferation assay (cell counts days 1, 3, 5), LCC2; format: cell-based, human; settings: DMEM + 5% charcoal-stripped serum
Description: Starting on day 1, cells were refed daily with fresh medium (DMEM plus 5% CSS) containing the indicated agent. In panel F, the cells were refed with medium also containing ER-siRNA or control-siRNA (100 nM) at the indicated times. Wells were counted on days 1, 3, and 5 to determine cell numbers. Values are means ± SEMs of triplicate wells. The data shown in each panel are representative of three independent experiments.
Assays were performed using as the growth medium phenol red-free DMEM containing 5% charcoal-stripped serum. Briefly, proliferating cells were harvested using trypsin, counted, inoculated into 12-well dishes at 1 × 10^4 cells per well on day 0 and allowed to attach and recover for 24 hr. The cells were then treated with the indicated agents for up to five days, with daily refeeding with fresh medium and agents. Triplicate wells were counted by Coulter Counter on days 1, 3, and 5. For experiments using siRNAs, cells were treated with the indicated siRNA (100 nM) starting on day -2, and fresh siRNA was added on days 0, 2, and 4.

[1] = MTT assay of cell viability; format: cell-based; settings: human, MCF-7 cells, 24-hr exposure, relative to untreated control
Description: Figure 3 Cytotoxicity and specificity of compounds A., B. Subconfluent proliferating cells were incubated with the indicated compound at the indicated concentration for 24-hr and then harvested for MTT dye reduction assays. Cell viability values (relative to untreated control cells) are means ± SEMs of 10 replicate wells. C., D. Subconfuent proliferating T47D cells were transfected overnight with the MMTV-Luc reporter (0.25 μg per well in 24-well dishes), washed, and allowed to recover for several hr in fresh medium. The cells were then treated with a synthetic progestin (R5020, 10 nM) plus the indicated compound at the indicated concentration for 24 hr and then harvested for luciferase assays. Luciferase activity is expressed relative to the MMTV-Luc control (no agents added) (panel A) or as a percentage of the +R5020 positive control (panel B). Values are means ± SEMs of four replicate wells. The data shown in each panel are representative of three independent experiments.
Assays were performed as described before. After the indicated treatment, cells in 96-well dishes were solubilized and assayed for MTT dye reduction. Cell viability was expressed as the amount of dye reduction relative to untreated control cells. and calculated as means ± SEMs for 10 replicate wells.

[2] = target: T1, estrogen receptor-alpha (ER) (Homo sapiens, UniProt P03372); test: constitutive ER activity, ERE-TK-Luc reporter, in anti-estrogen resistant LCC9 cells; format: cell-based; design: LCC9 cells in 24-well dishes were transfected overnight with the ERE-TK-Luc reporter plasmid; endogenous in cells; host or cells: LCC9; settings: for IC50: LCC9, no E2, 24 hr, read-out: IC50 for inhibition of ER activity in LCC9
T1 sequence (P03372 1-595): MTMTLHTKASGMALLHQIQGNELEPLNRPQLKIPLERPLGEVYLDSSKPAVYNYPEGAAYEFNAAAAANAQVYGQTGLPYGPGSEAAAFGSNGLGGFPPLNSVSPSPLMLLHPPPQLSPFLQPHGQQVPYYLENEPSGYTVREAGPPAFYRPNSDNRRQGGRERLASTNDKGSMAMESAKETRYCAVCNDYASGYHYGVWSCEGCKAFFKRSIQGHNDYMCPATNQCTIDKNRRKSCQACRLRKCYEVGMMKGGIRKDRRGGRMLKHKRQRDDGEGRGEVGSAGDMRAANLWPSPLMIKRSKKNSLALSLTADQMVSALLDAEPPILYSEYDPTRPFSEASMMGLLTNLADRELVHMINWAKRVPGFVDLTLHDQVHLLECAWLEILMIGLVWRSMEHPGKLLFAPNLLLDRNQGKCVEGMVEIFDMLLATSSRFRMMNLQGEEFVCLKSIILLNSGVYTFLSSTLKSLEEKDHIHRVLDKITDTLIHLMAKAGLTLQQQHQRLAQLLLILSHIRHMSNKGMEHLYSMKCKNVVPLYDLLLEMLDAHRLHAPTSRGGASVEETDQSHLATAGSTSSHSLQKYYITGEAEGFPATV
Description: For MCF-7, luciferase activity is expressed as a fold-change relative to the no E2 control. For LCC9, luciferase activity is expressed relative to the control without the reporter present. Values plotted are means ± SEMs of four replicate wells. The data shown in each panel are representative of three independent experiments.
The cells were then treated with the indicated concentrations of the six bioactive compounds or vehicle only (DMSO) for 24-hr and assayed for luciferase activity. Luciferase activity is expressed as a percentage of the DMSO control. Values are means ± SEMs of four replicate wells. The data shown in each panel are representative of three independent experiments.
The cells were then harvested for luciferase assays. Luciferase activity was expressed as a fold-change relative to the no reporter control. Values plotted are means ± SEMs of four replicate wells. The data shown are representative of three independent experiments.
Subconfluent cells in 24-well dishes were transfected overnight with 0.25 μg of each indicated vector plus the ERE-TK-Luc reporter in serum-free DMEM containing Lipofectamine2000 (Life Technologies, Washington, DC). Total transfected DNA was kept constant by addition of control vector. The cells were washed, incubated in phenol red-free DMEM containing 5% charcoal-stripped serum (obtained from the Tissue Culture Shared Resource) (0.2 ml/well) ± E2 (10 nM) ± the indicated compound for 24-hr, and harvested for luciferase assays. For each assay condition was tested in quadrupicate. To monitor the transfection efficiency, cultures were co-transfected with plasmid pRSV-β-gal (Promega, Madison, WI) to visualize transfected cells by X-gal staining.

cathepsin D [3] = test: Western blotting of cathepsin D (E2/ER-regulated gene) in MCF-7 cells; format: cell-based, human; settings: for E2-stimulated expression of cathepsin D: MCF-7, E2 10 nM, 24 hr; for cathepsin D levels, compound alone: MCF-7, no E2, 24 hr
Description: (§1) MCF-7 cells in DMEM plus 5% CSS were subjected to the indicated treatment(s) for 24-hr and then harvested for Western blotting to detect cathepsin D or actin (control for loading and transfer). B., D. LCC9 cells were treated with vehicle only (DMSO) or the indicated compound for 24-hr and then harvested for Western blotting for cathepsin D and actin. The data shown in each panel are representative of three independent experiments.
(§2) After the indicated cell treatment(s), the cells were harvested, and whole-cell lysates were prepared using RIPA buffer (Santa Cruz). Equal aliquots of whole-cell protein (either 100 μg unprecipitated whole-cell lysate or one half of the precipitated protein from 500-μg whole-cell lysate) were electrophoresed on 4-12% SDS-polyacrylamide gradient gels, transferred to nitrocellulose membranes (Millipore, Bedford, MA), and blotted using primary antibodies against BRCA1 (C-20, rabbit polyclonal, 1:200 dilution; Santa Cruz), cathepsin D (R-20, goat polyclonal, 1:300; Santa Cruz), ER (F10, mouse monoclonal, 1:500; Santa Cruz), or actin (goat polyclonal, sc-1615, 1:400; Santa Cruz). The membranes were blotted with the appropriate secondary antibodies (1:1000; Santa Cruz), and the blotted proteins were visualized using an electrochemiluminescence detection system (Amersham Biosciences), with colored markers (Bio-Rad Laboratories, Hercules, CA) as molecular size standards.

cathepsin D [4] = test: Western blotting of cathepsin D in LCC9 cells; format: cell-based, human; settings: LCC9, 24-hr exposure
Description: as §1
as §2, with “The membranes were blotted with the appropriate secondary antibodies (1:1000; Santa Cruz), and the blotted proteins were visualized using an electrochemiluminescence detection system (Amersham Biosciences), with colored markers (Bio-Rad Laboratories, Hercules, CA) as molecular size standards.” left out

| effect on ER activity in LCC9 cells, single agent ([2]; LCC9, 24 hr, Tam 5 μM in b8) | Structure (SMILES) | proliferation of Tamoxifen-resistant LCC2 cells (LCC2 cells) | viability at 24 h, 1 µM [1] [%] | viability at 24 h, 20 µM [1] [%] | IC50 [2] [nM] | ER activity in LCC9 cells, compound combined with Tam ([2]; compound plus Tam compared with compound alone, 24 hr) | E2-stimulated expression of cathepsin D (cathepsin D [3]) | cathepsin D levels, compound alone (cathepsin D [3]) | constitutive cathepsin D levels in LCC9 (cathepsin D [4]) |
| --- | --- | --- | --- | --- | --- | --- | --- | --- | --- |
| inhibited ER activity in LCC9 cells | O=C(c1cc(Br)ccc1O)c1cc(Br)ccc1O [4631-P/1] | inhibited ER-dependent cell proliferation | 100 | > 90 | ≤ 1000 | significantly lower ER activity than 4631-P/1 alone | blocked E2-stimulated expression of cathepsin D | little or no effect | decreased |
| – | O=C(CC(c1ccccc1)N1CCCCC1)c1ccccc1 (stereo not shown) [35446-L/1, 1,3-diphenyl-3-(piperidin-1-yl)propan-1-one] | inhibited ER-dependent cell proliferation | 100 | > 90 | ≤ 1000 | – | blocked E2-stimulated expression of cathepsin D | little or no effect | decreased |

Reference: article PMC4747340, “A new class of small molecule estrogen receptor-alpha antagonists that overcome anti-estrogen resistance” (Oncotarget, 2015)
